Assay results published in PubChem BioAssay AID1918958 (Molecular Pharmacology Branch, DTP, NCI, 2023).
Values joined by “and” are separate entries in the source; they are usually repeats but may differ in a detail not shown here. Equal values may be shown once.

Test system: NCI-H196 complex spheroid viability
Assay: Anticancer human tumor NCI-H196 cell line growth inhibition [LSD1];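 note: spheroids exposed to agents for 7 days before readout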;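 for viability, T/C: 100% = DMSO vehicle control viability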
Conditions: for viability, T/C: stronger effect = lower value
Outline: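 Drug combinations with the LSD1 inhibitor iadademstat tested on tumor cells co-cultured as spheroids with endothelial cells and mesenchymal stem cells. Concentrations descended in half-log increments from clinical Cmax or 10 microM.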

[1] = curve of first compound, second compound 0.1 µM
[2] = curve of first compound, second compound 0.316 µM
[3] = curve of first compound, second compound 1 µM
[4] = curve of first compound, second compound 3.16 µM
[5] = curve of first compound, second compound 10 µM
[6] = second compound 0.1 µM, first compound 0.000316 µM
[7] = second compound 0.1 µM, first compound 0.001 µM
[8] = second compound 0.1 µM, first compound 0.00316 µM
[9] = second compound 0.1 µM, first compound 0.01 µM
[10] = second compound 0.1 µM, first compound 0.0316 µM
[11] = second compound 0.1 µM, first compound 0.1 µM
[12] = second compound 0.316 µM, first compound 0.000316 µM
[13] = second compound 0.316 µM, first compound 0.001 µM
[14] = second compound 0.316 µM, first compound 0.00316 µM
[15] = second compound 0.316 µM, first compound 0.01 µM
[16] = second compound 0.316 µM, first compound 0.0316 µM
[17] = second compound 0.316 µM, first compound 0.1 µM
[18] = second compound 1 µM, first compound 0.000316 µM
[19] = second compound 1 µM, first compound 0.001 µM
[20] = second compound 1 µM, first compound 0.00316 µM
[21] = second compound 1 µM, first compound 0.01 µM
[22] = second compound 1 µM, first compound 0.0316 µM
[23] = second compound 1 µM, first compound 0.1 µM
[24] = second compound 3.16 µM, first compound 0.000316 µM
[25] = second compound 3.16 µM, first compound 0.001 µM
[26] = second compound 3.16 µM, first compound 0.00316 µM
[27] = second compound 3.16 µM, first compound 0.01 µM
[28] = second compound 3.16 µM, first compound 0.0316 µM
[29] = second compound 3.16 µM, first compound 0.1 µM
[30] = second compound 10 µM, first compound 0.000316 µM
[31] = second compound 10 µM, first compound 0.001 µM
[32] = second compound 10 µM, first compound 0.00316 µM
[33] = second compound 10 µM, first compound 0.01 µM
[34] = second compound 10 µM, first compound 0.0316 µM
[35] = second compound 10 µM, first compound 0.1 µM

Compound: CC[C@@]1(O)C(=O)OCc2c1cc1n(c2=O)Cc2cc3c(CN(C)C)c(O)ccc3nc2-1 + NC1CC1c1ccc(-c2cccc(O)c2)cc1
- IC50 [1]: > 100 nM
- IC50 [2]: > 100 nM
- IC50 [3]: > 100 nM
- IC50 [4]: > 100 nM
- IC50 [5]: > 100 nM
- viability, T/C [6]: 95.1%
- viability, T/C [7]: 101%
- viability, T/C [8]: 115%
- viability, T/C [9]: 105%
- viability, T/C [10]: 95.7%
- viability, T/C [11]: 99.5%
- viability, T/C [12]: 97.3%
- viability, T/C [13]: 104%
- viability, T/C [14]: 102%
- viability, T/C [15]: 109%
- viability, T/C [16]: 109%
- viability, T/C [17]: 95.9%
- viability, T/C [18]: 92.4%
- viability, T/C [19]: 93.8%
- viability, T/C [20]: 104%
- viability, T/C [21]: 100%
- viability, T/C [22]: 103%
- viability, T/C [23]: 94.8%
- viability, T/C [24]: 90.7%
- viability, T/C [25]: 95.3%
- viability, T/C [26]: 92.2%
- viability, T/C [27]: 101%
- viability, T/C [28]: 91%
- viability, T/C [29]: 82.6%
- viability, T/C [30]: 88.8%
- viability, T/C [31]: 90.4%
- viability, T/C [32]: 102%
- viability, T/C [33]: 115%
- viability, T/C [34]: 98.2%
- viability, T/C [35]: 78.2%

Compound: O=C(C=Cc1cccc(S(=O)(=O)Nc2ccccc2)c1)NO
- viability, T/C (compound 0.00949 µM): 107% and 99.7%
- viability, T/C (compound 0.03 µM): 103% and 104%
- viability, T/C (compound 0.0949 µM): 70.1% and 56.7%
- viability, T/C (compound 0.3 µM): 22.9% and 15%
- viability, T/C (compound 0.949 µM): 0.4%
- viability, T/C (compound 3 µM): 0.41% and 0.39%
- IC50 (curve of compound): 155 nM and 119 nM

Compound: CC(C)CC(NC(=O)CNC(=O)c1cc(Cl)ccc1Cl)B1OC(=O)CC(CC(=O)O)(C(=O)O)O1 (stereo unspecified)
- viability, T/C (compound 0.000316 µM): 108% and 104%
- viability, T/C (compound 0.001 µM): 113% and 107%
- viability, T/C (compound 0.00316 µM): 103% and 92%
- viability, T/C (compound 0.01 µM): 83.3% and 57.1%
- viability, T/C (compound 0.0316 µM): 34.6% and 20.3%
- viability, T/C (compound 0.1 µM): 6.61% and 4.84%
- IC50 (curve of compound): 22 nM and 12.6 nM

Compound: COc1cc(Nc2ncc3c(n2)-c2ccc(Cl)cc2C(c2c(F)cccc2OC)=NC3)ccc1C(=O)O + NC1CCC(NC2CC2c2ccccc2)CC1
- IC50 [1]: > 1000 nM
- IC50 [2]: > 1000 nM
- IC50 [3]: > 1000 nM
- IC50 [4]: > 1000 nM
- IC50 [5]: > 1000 nM
- viability, T/C [8]: 94.8%
- viability, T/C [9]: 107%
- viability, T/C [10]: 122%
- viability, T/C [11]: 116%
- viability, T/C (second compound 0.1 µM, first compound 0.316 µM): 134%
- viability, T/C (second compound 0.1 µM, first compound 1 µM): 121%
- viability, T/C [14]: 99.2%
- viability, T/C [15]: 103%
- viability, T/C [16]: 112%
- viability, T/C [17]: 131%
- viability, T/C (second compound 0.316 µM, first compound 0.316 µM): 123%
- viability, T/C (second compound 0.316 µM, first compound 1 µM): 138%
- viability, T/C [20]: 94.4%
- viability, T/C [21]: 108%
- viability, T/C [22]: 102%
- viability, T/C [23]: 113%
- viability, T/C (second compound 1 µM, first compound 0.316 µM): 126%
- viability, T/C (second compound 1 µM, first compound 1 µM): 119%
- viability, T/C [26]: 95.7%
- viability, T/C [27]: 105%
- viability, T/C [28]: 110%
- viability, T/C [29]: 103%
- viability, T/C (second compound 3.16 µM, first compound 0.316 µM): 128%
- viability, T/C (second compound 3.16 µM, first compound 1 µM): 126%
- viability, T/C [32]: 92.2%
- viability, T/C [33]: 107%
- viability, T/C [34]: 97.6%
- viability, T/C [35]: 116%
- viability, T/C (second compound 10 µM, first compound 0.316 µM): 125%
- viability, T/C (second compound 10 µM, first compound 1 µM): 113%

Compound: Cn1ncnc1C1c2n[nH]c(=O)c3cc(F)cc(c23)NC1c1ccc(F)cc1 (stereo unspecified) + NC1CC1c1ccc(-c2cccc(O)c2)cc1
- IC50 [1]: > 100 nM
- IC50 [2]: > 100 nM
- IC50 [3]: > 100 nM
- IC50 [4]: > 100 nM
- IC50 [5]: > 100 nM
- viability, T/C [6]: 96.6%
- viability, T/C [7]: 100%
- viability, T/C [8]: 102%
- viability, T/C [9]: 100%
- viability, T/C [10]: 94.3%
- viability, T/C [11]: 98.3%
- viability, T/C [12]: 104%
- viability, T/C [13]: 106%
- viability, T/C [14]: 98.2%
- viability, T/C [15]: 102%
- viability, T/C [16]: 101%
- viability, T/C [17]: 106%
- viability, T/C [18]: 105%
- viability, T/C [19]: 98.9%
- viability, T/C [20]: 101%
- viability, T/C [21]: 103%
- viability, T/C [22]: 104%
- viability, T/C [23]: 106%
- viability, T/C [24]: 92.2%
- viability, T/C [25]: 99.1%
- viability, T/C [26]: 102%
- viability, T/C [27]: 102%
- viability, T/C [28]: 99.2%
- viability, T/C [29]: 92.4%
- viability, T/C [30]: 99.1%
- viability, T/C [31]: 104%
- viability, T/C [32]: 95%
- viability, T/C [33]: 104%
- viability, T/C [34]: 97.7%
- viability, T/C [35]: 91.4%

Compound: CC(C)CC(NC(=O)C(Cc1ccccc1)NC(=O)c1cnccn1)B(O)O (stereo unspecified) + NC1CCC(NC2CC2c2ccccc2)CC1
- IC50 [1]: 0.529 nM
- IC50 [2]: 0.555 nM
- IC50 [3]: 0.572 nM
- IC50 [4]: 0.508 nM
- IC50 [5]: 0.511 nM
- viability, T/C [6]: 84.1%
- viability, T/C [7]: 7.65%
- viability, T/C [8]: 4.44%
- viability, T/C [9]: 3.35%
- viability, T/C [10]: 1.92%
- viability, T/C [11]: 1.52%
- viability, T/C [12]: 87.9%
- viability, T/C [13]: 10.3%
- viability, T/C [14]: 3.34%
- viability, T/C [15]: 2.71%
- viability, T/C [16]: 2.22%
- viability, T/C [17]: 0.68%
- viability, T/C [18]: 95.9%
- viability, T/C [19]: 6.67%
- viability, T/C [20]: 3.82%
- viability, T/C [21]: 2.43%
- viability, T/C [22]: 2.03%
- viability, T/C [23]: 0.58%
- viability, T/C [24]: 80.8%
- viability, T/C [25]: 5.93%
- viability, T/C [26]: 3.18%
- viability, T/C [27]: 2.05%
- viability, T/C [28]: 2.04%
- viability, T/C [29]: 0.46%
- viability, T/C [30]: 82.5%
- viability, T/C [31]: 4.35%
- viability, T/C [32]: 2.41%
- viability, T/C [33]: 1.45%
- viability, T/C [34]: 0.95%
- viability, T/C [35]: 0.47%

Compound: CC(C)CC(NC(=O)C(Cc1ccccc1)NC(=O)c1cnccn1)B(O)O (stereo unspecified)
- viability, T/C (compound 0.000316 µM): 86.3% and 68.7%
- viability, T/C (compound 0.001 µM): 5.76% and 3.52%
- viability, T/C (compound 0.00316 µM): 4.42% and 2.33%
- viability, T/C (compound 0.01 µM): 2.79% and 2.47%
- viability, T/C (compound 0.0316 µM): 2.25% and 1.91%
- viability, T/C (compound 0.1 µM): 0.92% and 0.81%
- IC50 (curve of compound): 0.531 nM and 0.44 nM

Compound: Nc1ccccc1NC(=O)c1ccc(CNC(=O)OCc2cccnc2)cc1 + NC1CCC(NC2CC2c2ccccc2)CC1
- IC50 [1]: 62.2 nM
- IC50 [2]: 59.3 nM
- IC50 [3]: 88.6 nM
- IC50 [4]: 77.4 nM
- IC50 [5]: 73.5 nM
- viability, T/C (second compound 0.1 µM, first compound 0.00949 µM): 82.9%
- viability, T/C (second compound 0.1 µM, first compound 0.03 µM): 66.6%
- viability, T/C (second compound 0.1 µM, first compound 0.0949 µM): 41%
- viability, T/C (second compound 0.1 µM, first compound 0.3 µM): 12%
- viability, T/C (second compound 0.1 µM, first compound 0.949 µM): 0.32%
- viability, T/C (second compound 0.1 µM, first compound 3 µM): 1.24%
- viability, T/C (second compound 0.316 µM, first compound 0.00949 µM): 81.2%
- viability, T/C (second compound 0.316 µM, first compound 0.03 µM): 69.3%
- viability, T/C (second compound 0.316 µM, first compound 0.0949 µM): 36.4%
- viability, T/C (second compound 0.316 µM, first compound 0.3 µM): 11.9%
- viability, T/C (second compound 0.316 µM, first compound 0.949 µM): 0.27%
- viability, T/C (second compound 0.316 µM, first compound 3 µM): 0.3%
- viability, T/C (second compound 1 µM, first compound 0.00949 µM): 84.8%
- viability, T/C (second compound 1 µM, first compound 0.03 µM): 73.3%
- viability, T/C (second compound 1 µM, first compound 0.0949 µM): 49.9%
- viability, T/C (second compound 1 µM, first compound 0.3 µM): 12.2%
- viability, T/C (second compound 1 µM, first compound 0.949 µM): 0.24%
- viability, T/C (second compound 1 µM, first compound 3 µM): 0.35%
- viability, T/C (second compound 3.16 µM, first compound 0.00949 µM): 85.3%
- viability, T/C (second compound 3.16 µM, first compound 0.03 µM): 78.9%
- viability, T/C (second compound 3.16 µM, first compound 0.0949 µM): 43.4%
- viability, T/C (second compound 3.16 µM, first compound 0.3 µM): 10.2%
- viability, T/C (second compound 3.16 µM, first compound 0.949 µM): 0.27%
- viability, T/C (second compound 3.16 µM, first compound 3 µM): 0.26%
- viability, T/C (second compound 10 µM, first compound 0.00949 µM): 89.7%
- viability, T/C (second compound 10 µM, first compound 0.03 µM): 73.6%
- viability, T/C (second compound 10 µM, first compound 0.0949 µM): 44.3%
- viability, T/C (second compound 10 µM, first compound 0.3 µM): 12.1%
- viability, T/C (second compound 10 µM, first compound 0.949 µM): 1.12%
- viability, T/C (second compound 10 µM, first compound 3 µM): 0.38%
